According to patent US20060142319A1, “Pyridyl-substituted spiro-hydantoin crystalline forms and process” (priority 2004, published 2006):

Legend:
[1] = molecular target: CYP 2C19 (Homo sapiens, UniProt P33261); assay: CYP assay; assay type: in vitro ADME; conditions: CYP assay per Drug Metabolism and Disposition 28, 1440-1448 (2000)
Method: The CYP assay was conducted according to the procedure in Drug Metabolism and Disposition, 28, 1440-1448 (2000).

[2] = Microsomal liver assay (rate of oxidative metabolism); assay type: in vitro ADME; conditions: human liver microsomes; 3 μM test compound, 1 mg/mL microsomal proteins, NADPH, 37° C.
Method: Mouse and rat liver microsomes were purchased from XenoTech LLC (Kansas City, Kans.), and human liver microsomes were obtained from BD Gentest (Woburn, Mass.).
The oxidative metabolism in liver microsomes of various species was studied under the following condition: 3 μM test compound (organic solvent content <0.1%), 1 mg/mL microsomal proteins, 1 mM β-nicotinamide adenine dinucleotide phosphase (β-NADPH), 100 mM phosphate buffer (pH 7.4), and 6.7 mM magnesium chloride. The reaction (n=3) was initiated by the addition of NADPH followed by incubation at 37° C. for 20 min. Aliquots of samples (0.1 mL) were taken at 0, 5, and 20 min, and the reaction was quenched by the addition of three volumes of acetonitrile. Samples were stored at −20° C. until analysis.
The rate of oxidation in liver microsomes was determined from the following equation: rate (nmol/min/mg protein)=k*C0/Cprotein, where k (1/min) is the turnover rate constant estimated from non-linear regression of the percent compound remaining (y)-time (t) curve using the equation y=y0*exp(−k*t); C0 is initial drug concentration (μM), and Cprotein is microsomal protein concentration (mg/mL).
Rates of metabolism are “binned” (classified) as follows: […]

CYP 2C19, sequence (P33261 whole entry): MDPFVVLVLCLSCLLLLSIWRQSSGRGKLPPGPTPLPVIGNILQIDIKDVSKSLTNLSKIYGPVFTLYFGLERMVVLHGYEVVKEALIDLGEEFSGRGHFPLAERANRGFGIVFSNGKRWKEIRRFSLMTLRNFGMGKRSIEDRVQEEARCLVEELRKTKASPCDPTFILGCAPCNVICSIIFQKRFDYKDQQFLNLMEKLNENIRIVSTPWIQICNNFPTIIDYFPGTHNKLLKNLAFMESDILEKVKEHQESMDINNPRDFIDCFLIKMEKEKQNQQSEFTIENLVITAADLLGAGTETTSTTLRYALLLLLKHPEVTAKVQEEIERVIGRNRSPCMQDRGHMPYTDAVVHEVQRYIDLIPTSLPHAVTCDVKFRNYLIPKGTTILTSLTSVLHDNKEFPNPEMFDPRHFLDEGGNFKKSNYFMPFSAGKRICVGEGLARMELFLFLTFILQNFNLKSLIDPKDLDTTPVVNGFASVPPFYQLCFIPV

SMILES | IC50 [1] | rate of metabolism [2]
CN1C(=O)N(c2cc(Cl)cc(Cl)c2)C(=O)[C@]12CN(c1ccc(C(=O)O)cn1)C[C@H]2c1ccc(C#N)cc1 [IId, 6-[(5S,9R)-9-(4-cyanophenyl)-3-(3,5-dichlorophenyl)-1-methyl-2,4-dioxo-1,3,7-triazaspiro[4.4]non-7-yl]nicotinic acid] | 38.2 ± 2.22 µM | 0.01 ± 0.01 nmol/min/mg
CN1C(=O)N(c2cc(Cl)cc(Cl)c2)C(=O)[C@]12CN(c1ccccn1)C[C@H]2c1ccc(C#N)cc1 (relative stereo) [4-[(5S*,9R*)-3-(3,5-dichlorophenyl)-1-methyl-2,4-dioxo-7-pyridin-2-yl-1,3,7-triazaspiro[4.4]non-9-yl]-benzonitrile] | 0.11 µM | 0.2 nmol/min/mg
